Assay results from patent publication US8097641B2, “Heterocyclyl substituted tetrahydronaphthalene derivatives as 5-HT7 receptor ligands” (Laboratorios del Dr. Esteve, S.A., priority 2007, dated 2012).
Structures can show the parent of a compound that is named as a salt.

Target: T1, Cloned Human Serotonin Receptor, Subtype 7 (h5HT7) (Homo sapiens, UniProt P34969)
T1 construct: purchased PerkinElmer 6120512; host or cells: CHO cells (membranes coated on Basic FlashPlate SMP200)
Assay: Radioligand binding assay, cloned human serotonin receptor subtype 7 (h5HT7) expressed in CHO cells, [125I]LSD
Conditions: for IC50: [125I]LSD 0.82 nM, h5HT7 membranes from CHO cells, read-out: 5-HT7 IC50; for inhibition at 1 µM: compound at 10^−6 M, read-out: 5-HT7 %-Inhib. (10^−6 M)
Experimental: Radioligand binding assays were performed using the Cloned Human Serotonin Receptor, Subtype 7 (h5HT7), expressed in CHO cells, coated on Flashplate (Basic FlashPlate Cat.: SMP200) from PerkinElmer (Cat.: 6120512). The protocol assay was essentially the recommended protocol in the Technical Data Sheet by PerkinEmer Life and Analytical Sciences. The Mass membrane protein/well was typically 12 μg and the Receptor/well was about 9-10 fmoles. The Flashplate were let equilibrate at room temperature for one hour before the addition of the components of the assay mixture. The binding buffer was: 50 mM Tris-HCl, pH 7.4, containing 10 mM MgCl2, 0.5 mM EDTA and 0.5% BSA. The radioligand was [^125I]LSD at a final concentration of 0.82 nM. Nonspecific binding was determined with 50 μM of Clozapine. The assay volume was 25 μl. TopSeal-A were applied onto Flashplate microplates and they were incubated at room temperature for 240 minutes in darkness. The radioactivity were quantified by liquid scintillation spectrophotometry (Wallac 1450 Microbeta Trilux) with a count delay of 4 minutes prior to counting and a counting time of 30 seconds per well. Competition binding data were analyzed by using the LIGAND program (Munson and Rodbard, LIGAND: A versatile, computerized approach for characterization of ligand-binding systems. Anal. Biochem. 107: 220-239, 1980) and assays were performed in triplicate determinations for each point.

T1 sequence (P34969 whole entry): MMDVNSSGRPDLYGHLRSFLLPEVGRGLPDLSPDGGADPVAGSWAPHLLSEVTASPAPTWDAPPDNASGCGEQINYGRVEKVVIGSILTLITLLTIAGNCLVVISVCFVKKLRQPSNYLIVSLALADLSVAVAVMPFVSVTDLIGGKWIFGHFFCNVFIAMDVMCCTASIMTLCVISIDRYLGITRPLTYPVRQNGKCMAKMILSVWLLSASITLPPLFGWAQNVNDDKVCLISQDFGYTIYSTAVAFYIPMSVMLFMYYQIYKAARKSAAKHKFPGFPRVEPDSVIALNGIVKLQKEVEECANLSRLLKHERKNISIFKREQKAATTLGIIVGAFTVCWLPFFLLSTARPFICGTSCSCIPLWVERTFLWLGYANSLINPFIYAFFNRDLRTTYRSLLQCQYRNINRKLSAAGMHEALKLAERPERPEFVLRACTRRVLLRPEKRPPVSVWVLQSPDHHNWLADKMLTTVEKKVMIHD

Cc1nn(C)c(C)c1-c1cccc2c1CC[C@H](NC(C)C)C2 [Example P, (2S)-Isopropyl-[5-(1,3,5-trimethyl-1H-pyrazol-4-yl)-1,2,3,4-tetrahydro-naphthalen-2-yl]-amine]
IC50: 587 ± 10 nM | inhibition at 1 µM: 61.7%

Cc1nn(C)c(C)c1-c1cccc2c1CC[C@H](N(C)Cc1ccccc1)C2 [Example F, (2S)-Benzyl-methyl-[5-(1,3,5-trimethyl-1H-pyrazol-4-yl)-1,2,3,4-tetrahydro-naphthalen-2-yl]-amine]
IC50: 187 nM

Cc1nn(C)c(C)c1-c1cccc2c1CC[C@H](N)C2 [Example O, (2S)-5-(1,3,5Trimethyl-1H-pyrazol-4-yl)-1,2,3,4-tetrahydro-naphthalen-2-ylamine dihydrochloride]
IC50: 25 ± 3.8 nM | inhibition at 1 µM: 79% | inhibition at 0.1 µM (compound at 10^−7 M, read-out: 5-HT7 %-Inhib. (10^−7 M)): 47.2%
